# Columns and labels:
# Phosphodiesterase 4 = Phosphodiesterase 4 (Homo sapiens, UniProt P27815+Q08499+Q07343+Q08493); assay: Inhibitory activity against phosphodiesterase 4 carried out in the cytosol of human neutrophils; type: protein assay
# Mus musculus = assay: Percent inhibition of arachidonic acid induced mouse ear edema after 30 uM/kg peroral pretreatment; type: functional
Log IC50 (Phosphodiesterase 4),Structure (SMILES),Inhibition (Mus musculus)
-6.1,COc1ccc(C2=NNC(=O)[C@H]3CC=CC[C@@H]23)cc1OC,–
-6.6,COc1ccc(C2=NNC(=O)[C@H]3CC=CC[C@@H]23)c2c1OC1(CCCC1)C2,–
-7.1,COc1ccc(C2=NNC(=O)C3CC=CCC23)cc1OC1CCCC1 (centres undefined),–
-8.3,CCOc1ccc(C2=NN(c3ccc(C(=O)O)cc3)C(=O)[C@@H]3CC=CC[C@H]23)cc1OCC,47%
-8.5,COc1ccc(C2=NNC(=O)[C@@H]3CC=CC[C@H]23)c2c1OC1(CCCC1)C2,–
-5.6,COc1ccc(C2=NNC(=O)[C@H]3CCCC[C@@H]23)c2c1OC1(CCCC1)C2,–
-5.8,COc1ccc(C2=NNC(=O)[C@H]3CCCC[C@@H]23)cc1OC1CCCC1,–
-6.4,COc1ccc(C2=NNC(=O)C3CCCCC23)cc1OC (centres undefined),–
-6.7,COc1ccc(C2=NNC(=O)[C@H]3CC=CC[C@@H]23)cc1OC1CCCC1,–
-5.1,COc1ccc(C2=NNC(=O)[C@H]3CCCC[C@@H]23)cc1OC,–
-6.8,COc1ccc(C2=NNC(=O)C3CCCCC23)cc1OC1CCCC1 (centres undefined),–
-7.8,COc1ccc(C2=NNC(=O)[C@@H]3CCCC[C@H]23)c2c1OC1(CCCC1)C2,–
-8.2,CCOC(=O)c1ccc(N2N=C(c3ccc(OCC)c(OCC)c3)[C@H]3CC=CC[C@H]3C2=O)cc1,27%
-7,COc1ccc(C2=NNC(=O)C3CC=CCC23)cc1OC (racemic),–
-7.3,COc1ccc(C2=NNC(=O)C3CCCCC23)c2c1OC1(CCCC1)C2 (racemic),–
-9.2,COc1ccc(C2=NN(C3C4CC5CC(C4)CC3C5)C(=O)C3CC=CCC23)cc1OC (racemic),51%
-8,CCOC(=O)c1ccc(N2N=C(c3ccc(OCC)c(OCC)c3)C3CC=CCC3C2=O)cc1 (racemic),–
-8,COc1ccc(C2=NNC(=O)C3CC=CCC23)c2c1OC1(CCCC1)C2 (racemic),–
-7.7,CCOc1ccc(C2=NN(c3ccc(C(=O)O)cc3)C(=O)C3CC=CCC23)cc1OCC (racemic),48%
-7.1,COc1ccc(C2=NNC(=O)[C@@H]3CCCC[C@H]23)cc1OC1CCCC1 (relative stereo),–
-7.3,COc1ccc(C2=NNC(=O)[C@@H]3CC=CC[C@H]23)cc1OC (relative stereo),–
-6.9,COc1ccc(C2=NNC(=O)[C@@H]3CCCC[C@H]23)cc1OC (relative stereo),–
-7.4,COc1ccc(C2=NNC(=O)[C@@H]3CC=CC[C@H]23)cc1OC1CCCC1 (relative stereo),–
-9.3,"COc1ccc(C2=NN(C3C4CC5CC(C4)CC3C5)C(=O)[C@@H]3CC=CC[C@H]23)cc1OC (single isomer, unassigned; (+))",49%
-6.9,"COc1ccc(C2=NN(C3C4CC5CC(C4)CC3C5)C(=O)[C@H]3CC=CC[C@@H]23)cc1OC (single isomer, unassigned; (-))",–
–,"COc1ccc(C2CNC(=O)C2)cc1OC1CCCC1 (single isomer, unassigned; (-)) [ROLIPRAM]",55%
-7.7,COc1ccc([C@H](Cc2ccncc2)c2ccccc2)cc1OC1CCCC1 [CDP840],48%
–,COc1ccc([C@]2(C#N)CC[C@@H](C(=O)O)CC2)cc1OC1CCCC1 [CILOMILAST],33%

# From ChEMBL document CHEMBL1135462, “Novel selective phosphodiesterase (PDE4) inhibitors. 4. Resolution, absolute configuration, and PDE4 inhibitory activity of cis-tetra- and cis-hexahydrophthalazinones” (J Med Chem, 2002)
